Assays:
[1] = target: Cbl-b (36-427 aa truncated form, N-terminus Avi-tag) (Homo sapiens (Human), UniProt Q13191); experiment: Cbl-b binding: TR-FRET displacement of BODIPY-FL probe
Summary of the method: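 IC50 from loss of terbium–BODIPY-FL TR-FRET signal as compounds compete off a fluorescent Cbl-b inhibitor probe (1 uM) for 1 h at RT. Protein: N-Avi-tagged human Cbl-b 36-427 on streptavidin-terbium, 20 mM HEPES pH 7.5 buffer.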

Human primary T cells [2] = experiment: T cell activation: secreted IL-2; format: cell-based; details: 48 hours, fold over background normalized to Compound 141A; for IL-2 1 nM: 1 nM compound; for IL-2 10 nM: 10 nM compound; for IL-2 100 nM: 100 nM compound
Procedure: (§1) Human primary T cells were isolated from commercially available frozen peripheral blood mononuclear cells (HemaCare Corporation) or from fresh LeukoPaks (Research Blood Components). T cells were isolated through depletion of non-T cells using negative selection kit according to the manufacturer's protocol (Miltenyi Biotec, Human Pan T Cell Isolation Kit, 130-096-535). Isolated cells were cultured overnight at 37° C. with 5% CO2 and plated at 1×10^5 cells per well in XVivo-15 serum-free media (Lonza, 04-418Q) into 96 well plates coated with anti-CD3 (OKT3) antibody (ThermoFisher, 16-0037-85). To coat the plates for T cell capture, anti-CD3 antibody was diluted in PBS at 10 μg/mL and 100 μl added to each well. Plates were incubated at 4° C. overnight or at 37° C. for 2 hours and washed once with PBS before use. Serial dilutions of each compound were added in duplicates to the T cells to assess their effect on T cell activation. T cells treated with 5 μg/mL of CD28 antibody (ThermoFisher, 16-0289-85) or T cells stimulated by CD3 only were used as a control. Plates were incubated with the Cbl-b inhibitors for 48 hours at 37° C. with 5% CO2, and supernatants were subsequently analyzed for levels of the activation induced secreted cytokines IL-2 or IFN-y (BD Biosciences CBA Flex Beads, 558269, 558270). T cells were additionally stained with anti-CD69 antibody (Invitrogen, 12-0699-42 which labels a T cell activation associated membrane protein to and surface expression was measured by flow cytometry (ThermoFisher Attune NxT).
(§2) To control for natural inter-donor variability in T cell responses intrinsic to using primary human donor derived cells, secreted IL-2 and IFN-y measurements for each test compound were reported as the fold increase of the compound treated levels over background (antiCD3/CD28 treatment only) normalized to the values obtained for Compound 141A. Results for compound treatment-induced changes in CD69 levels are similarly reported as the fold increase due to compound treatment over anti-CD3 stimulated background only, normalized to values obtained for Compound 141A.
Normalized T cell IL-2 responses were sorted into ranges as follows: fold over background values between 1.41 and 1.8: range “X”, between 0.80 and 1.40: range “A”, values between 0.31 and 0.79: range “B” values between 0.10 and 0.30: range “C”, values between 0.01 and 0.09: range “D.”

Human primary T cells [3] = experiment: T cell activation: CD69 surface expression by flow cytometry; format: cell-based; details: fold over anti-CD3 stimulated background normalized to Compound 141A; for CD69 10 nM: 10 nM compound; for CD69 100 nM: 100 nM compound
Procedure: as §1, §2
Similarly, bins for normalized CD69 levels were sorted into ranges as follows: fold over background values between 1.11 and 1.6: range “X”, values between 0.81 and 1.10: range “A”; values between 0.61 and 0.80: range “B;” values between 0.30 and 0.60: range “C”.

Human primary T cells [4] = experiment: T cell activation: secreted IFN-y; format: cell-based; details: 48 hours, fold over background normalized to Compound 141A; for IFN-y 1 nM: 1 nM compound; for IFN-y 10 nM: 10 nM compound; for IFN-y 100 nM: 100 nM compound
Procedure: as §1, §2
Normalized T cell IFN-y responses were sorted into ranges as follows: fold over background between 1.10 and 2.00: range “A”, values between 0.31 and 1.00: range “B;” values between 0.10 and 0.30: range “C”, and values between 0.01 and 0.09: range “D.”

Sequence of Cbl-b (36-427 aa truncated form, N-terminus Avi-tag) (Q13191 36-427): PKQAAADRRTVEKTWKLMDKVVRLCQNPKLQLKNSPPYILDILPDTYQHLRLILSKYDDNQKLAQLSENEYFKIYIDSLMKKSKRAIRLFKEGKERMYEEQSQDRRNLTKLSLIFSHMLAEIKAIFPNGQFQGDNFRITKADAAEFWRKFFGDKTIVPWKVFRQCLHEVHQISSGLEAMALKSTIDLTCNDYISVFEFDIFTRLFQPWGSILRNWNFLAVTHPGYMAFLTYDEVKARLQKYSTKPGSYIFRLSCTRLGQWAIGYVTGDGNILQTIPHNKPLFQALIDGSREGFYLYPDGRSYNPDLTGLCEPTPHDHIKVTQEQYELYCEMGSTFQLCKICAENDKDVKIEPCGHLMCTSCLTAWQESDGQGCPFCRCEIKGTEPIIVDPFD

Compound: CCSc1cc(C2(c3nncn3C)CC(C)C2)cc(N2Cc3c(cc(CN4CCC[C@H](C)C4)cc3C(F)(F)F)C2=O)n1 (stereo partly drawn) [Compound 113, 2-[6-(ethylsulfanyl)-4-[(1s,3r)-3-methyl-1-(4-methyl-1,2,4-triazol-3-yl)cyclobutyl]pyridin-2-yl]-6-{[(3S)-3-methylpiperidin-1-yl]methyl}-4-(trifluoromethyl)-3H-isoindol-1-one]
- IC50 [1]: 0.02 to 0.1 µM
- IL-2 1 nM (Human primary T cells [2]): C (values between 0.10 and 0.30: range “C”)
- IL-2 10 nM (Human primary T cells [2]): B (values between 0.31 and 0.79: range “B”)
- IL-2 100 nM (Human primary T cells [2]): B (values between 0.31 and 0.79: range “B”)
- CD69 10 nM (Human primary T cells [3]): B (values between 0.61 and 0.80: range “B;”)
- CD69 100 nM (Human primary T cells [3]): A (values between 0.81 and 1.10: range “A”)
- IFN-y 1 nM (Human primary T cells [4]): C (values between 0.10 and 0.30: range “C”)
- IFN-y 10 nM (Human primary T cells [4]): B (values between 0.31 and 1.00: range “B;”)
- IFN-y 100 nM (Human primary T cells [4]): B (values between 0.31 and 1.00: range “B;”)

Compound: C[C@H]1CCCN(Cc2cc3c(c(C(F)(F)F)c2)CN(c2cc(C4(Cc5nncn5C)COC4)cc(C#N)n2)C3=O)C1 [Compound 115, 4-{3-[(4-methyl-1,2,4-triazol-3-yl)methyl]oxetan-3-yl}-6-(6-{[(3S)-3-methylpiperidin-1-yl]methyl}-1-oxo-4-(trifluoromethyl)-3H-isoindol-2-yl)pyridine-2-carbonitrile]
- IC50 [1]: 0.1 to 1 µM
- IL-2 1 nM (Human primary T cells [2]): C (values between 0.10 and 0.30: range “C”)
- IL-2 10 nM (Human primary T cells [2]): C (values between 0.10 and 0.30: range “C”)
- IL-2 100 nM (Human primary T cells [2]): B (values between 0.31 and 0.79: range “B”)
- CD69 10 nM (Human primary T cells [3]): C (values between 0.30 and 0.60: range “C”)
- CD69 100 nM (Human primary T cells [3]): B (values between 0.61 and 0.80: range “B;”)
- IFN-y 1 nM (Human primary T cells [4]): C (values between 0.10 and 0.30: range “C”)
- IFN-y 10 nM (Human primary T cells [4]): C (values between 0.10 and 0.30: range “C”)
- IFN-y 100 nM (Human primary T cells [4]): B (values between 0.31 and 1.00: range “B;”)

Compound: C=CC(=O)NCc1cc(C2(Cc3nncn3C)COC2)cc(N2Cc3c(cc(CN4CCC[C@H](C)C4)cc3C(F)(F)F)C2=O)n1 [Compound 116, N-[(4-{3-[(4-methyl-1,2,4-triazol-3-yl)methyl]oxetan-3-yl}-6-(6-{[(3S)-3-methylpiperidin-1-yl]methyl}-1-oxo-4-(trifluoromethyl)-3H-isoindol-2-yl)pyridin-2-yl)methyl]prop-2-enamide]
- IC50 [1]: 0.00501 to 0.02 µM
- IL-2 1 nM (Human primary T cells [2]): C (values between 0.10 and 0.30: range “C”)
- IL-2 10 nM (Human primary T cells [2]): C (values between 0.10 and 0.30: range “C”)
- IL-2 100 nM (Human primary T cells [2]): B (values between 0.31 and 0.79: range “B”)
- CD69 10 nM (Human primary T cells [3]): C (values between 0.30 and 0.60: range “C”)
- CD69 100 nM (Human primary T cells [3]): B (values between 0.61 and 0.80: range “B;”)
- IFN-y 1 nM (Human primary T cells [4]): C (values between 0.10 and 0.30: range “C”)
- IFN-y 10 nM (Human primary T cells [4]): C (values between 0.10 and 0.30: range “C”)
- IFN-y 100 nM (Human primary T cells [4]): B (values between 0.31 and 1.00: range “B;”)

Compound: CCNc1cc(C2(Cc3nncn3C)COC2)cc(N2Cc3c(cc(C(CSC)N4CCC[C@H](C)C4)cc3C(F)(F)F)C2=O)n1.O=C(O)C(F)(F)F (stereo partly drawn) [Compound 117, 2-[6-(ethylamino)-4-{3-[(4-methyl-1,2,4-triazol-3-yl)methyl]oxetan-3-yl}pyridin-2-yl]-6-{1-[(3S)-3-methylpiperidin-1-yl]-2-(methylsulfanyl)ethyl}-4-(trifluoromethyl)-3H-isoindol-1-one; trifluoroacetic acid]
- IC50 [1]: 0.02 to 0.1 µM
- IL-2 1 nM (Human primary T cells [2]): C (values between 0.10 and 0.30: range “C”)
- IL-2 10 nM (Human primary T cells [2]): C (values between 0.10 and 0.30: range “C”)
- IL-2 100 nM (Human primary T cells [2]): C (values between 0.10 and 0.30: range “C”)
- CD69 10 nM (Human primary T cells [3]): C (values between 0.30 and 0.60: range “C”)
- CD69 100 nM (Human primary T cells [3]): B (values between 0.61 and 0.80: range “B;”)
- IFN-y 1 nM (Human primary T cells [4]): C (values between 0.10 and 0.30: range “C”)
- IFN-y 10 nM (Human primary T cells [4]): C (values between 0.10 and 0.30: range “C”)
- IFN-y 100 nM (Human primary T cells [4]): B (values between 0.31 and 1.00: range “B;”)

Compound: C[C@H]1CCCN(Cc2cc3c(c(C(F)(F)F)c2)CN(c2cc(C4(Cc5nncn5C)COC4)cc(NCCN=[N+]=[N-])n2)C3=O)C1 [Compound 118, 2-{6-[(2-azidoethyl)amino]-4-{3-[(4-methyl-1,2,4-triazol-3-yl)methyl]oxetan-3-yl}pyridin-2-yl}-6-{[(3S)-3-methylpiperidin-1-yl]methyl}-4-(trifluoromethyl)-3H-isoindol-1-one]
- IC50 [1]: 0.001 to 0.005 µM
- IL-2 1 nM (Human primary T cells [2]): B (values between 0.31 and 0.79: range “B”)
- IL-2 10 nM (Human primary T cells [2]): B (values between 0.31 and 0.79: range “B”)
- IL-2 100 nM (Human primary T cells [2]): A (between 0.80 and 1.40: range “A”)
- CD69 10 nM (Human primary T cells [3]): A (values between 0.81 and 1.10: range “A”)
- CD69 100 nM (Human primary T cells [3]): A (values between 0.81 and 1.10: range “A”)
- IFN-y 1 nM (Human primary T cells [4]): B (values between 0.31 and 1.00: range “B;”)
- IFN-y 10 nM (Human primary T cells [4]): A (fold over background between 1.10 and 2.00: range “A”)
- IFN-y 100 nM (Human primary T cells [4]): A (fold over background between 1.10 and 2.00: range “A”)

Compound: C[C@H]1CCCN(Cc2cc3c(c(C(F)(F)F)c2)CN(c2cc(C4(Cc5nncn5C)COC4)cc(NCC#N)n2)C3=O)C1 [Compound 119, (S)-2-((4-(3-((4-methyl-4H-1,2,4-triazol-3-yl)methyl)oxetan-3-yl)-6-(6-((3-methylpiperidin-1-yl)methyl)-1-oxo-4-(trifluoromethyl)isoindolin-2-yl)pyridin-2-yl)amino)acetonitrile]
- IC50 [1]: 0.001 to 0.005 µM
- IL-2 1 nM (Human primary T cells [2]): C (values between 0.10 and 0.30: range “C”)
- IL-2 10 nM (Human primary T cells [2]): B (values between 0.31 and 0.79: range “B”)
- IL-2 100 nM (Human primary T cells [2]): B (values between 0.31 and 0.79: range “B”)
- CD69 10 nM (Human primary T cells [3]): B (values between 0.61 and 0.80: range “B;”)
- CD69 100 nM (Human primary T cells [3]): A (values between 0.81 and 1.10: range “A”)
- IFN-y 1 nM (Human primary T cells [4]): C (values between 0.10 and 0.30: range “C”)
- IFN-y 10 nM (Human primary T cells [4]): B (values between 0.31 and 1.00: range “B;”)
- IFN-y 100 nM (Human primary T cells [4]): B (values between 0.31 and 1.00: range “B;”)

Compound: C[C@H]1CCCN(Cc2cc3c(c(C(F)(F)F)c2)CN(c2cc(C4(Cc5nncn5C)COC4)cc(SCC(O)CO)n2)C3=O)C1.O=CO (stereo partly drawn) [Compound 120, 2-{6-[(2,3-dihydroxypropyl)sulfanyl]-4-{3-[(4-methyl-1,2,4-triazol-3-yl)methyl]oxetan-3-yl}pyridin-2-yl}-6-{[(3S)-3-methylpiperidin-1-yl]methyl}-4-(trifluoromethyl)-3H-isoindol-1-one; formic acid]
- IC50 [1]: 0.02 to 0.1 µM
- IL-2 1 nM (Human primary T cells [2]): C (values between 0.10 and 0.30: range “C”)
- IL-2 10 nM (Human primary T cells [2]): C (values between 0.10 and 0.30: range “C”)
- IL-2 100 nM (Human primary T cells [2]): C (values between 0.10 and 0.30: range “C”)
- CD69 10 nM (Human primary T cells [3]): C (values between 0.30 and 0.60: range “C”)
- CD69 100 nM (Human primary T cells [3]): C (values between 0.30 and 0.60: range “C”)
- IFN-y 1 nM (Human primary T cells [4]): C (values between 0.10 and 0.30: range “C”)
- IFN-y 10 nM (Human primary T cells [4]): C (values between 0.10 and 0.30: range “C”)
- IFN-y 100 nM (Human primary T cells [4]): C (values between 0.10 and 0.30: range “C”)
